{"source": "patent US5908868A", "about": "“Retinol derivatives useful for enhancing immune response” (priority 1995, dated 1999)", "key": {"B lymphocytes": {"tested_on": "B lymphocytes", "conditions": "cited from earlier work"}, "CD4+ T lymphocytes": {"tested_on": "CD4+ T lymphocytes", "experiment": "Proliferation of anti-CD3 activated CD4+ T lymphocytes", "type": "cell-based, BALB/c mouse", "excerpt": "(§1) Growth curves of lymph node T cells depleted of antigen-presenting cells (FIG. 17A) with and without 10^-6 M retinol at 2×10^5 and 5×10^4 cells/well. (FIG. 17B) Dose-responses elicited by different retinoids in cultures of lymph node T cells depleted of antigen-presenting cells. Also shown are the growth curves of CD4^+ (FIG. 17C) and CD8^+ T lymphocytes (FIG. 17D) in the presence of either retinol, 14HRR, human serum or in their absence.\n(§2) T lymphocytes, purified as described, 5×10^4 well, were activated with immobilized anti-CD3 antibody in ITLB medium. The indicated amounts of retinoids or human serum were added at initiation of cultures. […] 14HRR was added every 12 hours. DNA synthesis was measured by a 4 hour pulse with tritiated thymidine. SDs were ≤17%.\n(§3) The cell suspension in a volume of 2 ml was applied to a nylon wool column (40) (0.6 g of washed nylon fibers in the barrel of a 10 ml syringe) and incubated at 37° C. for 40 min. The non-adherent cells were recovered by washing with warm serum-free medium at a flow rate of 1 ml/min. […] The success of the enrichment procedures was monitored cytofluorimetrically using FITC-conjugated anti-CD8 and PE-conjugated anti-CD4. […]"}, "blast cells (thymocytes)": {"tested_on": "blast cells (thymocytes)", "experiment": "Flow cytometry phenotype of blast cells from activated thymocyte cultures", "type": "cell-based, BALB/c mouse", "conditions": "retinol- and 14HRR-supported cultures, data not shown", "method": "To determine the phenotype of blast cells generated in the thymocyte cultures stimulated with immobilized anti-CD3 antibody and retinoids as well as the purity of CD4 and CD8 subsets isolated from pooled mouse lymph nodes, cells (10^5 -10^6 cells/sample), stained with FITC-conjugated anti-CD4 antibody and PE-conjugated anti-CD8 antibody, were analyzed by two-color flow cytometry with a FACScan. Dead cells were eliminated by forward low-angle scatter. Isotope controls were included in all experiments. To determine the phenotypes of activated thymocytes only blast cells were gated for collection and analysis."}, "5/2 cells": {"tested_on": "5/2 cells", "experiment": "Growth (DNA synthesis, [3H]thymidine) of lymphoblastoid 5/2 cells in serum-free medium", "type": "cell-based, human", "conditions": "for restoration of capacity to proliferate: ITLB medium without retinol", "method": "Washed 5/2 cells (5,000/well) were incubated for 72 hours in HB101 medium with the indicated amounts of retinoids. DNA synthesis was measured by [^3 H] thymidine uptake. The measurements were done in triplicate. The SDs were <15%.\nIn FIGS. 4B to 4D, 5/2 cells were washed twice and seeded at a concentration of 150,000 cells/ml in HB 101 medium. Triplicate samples of 100 μl of cell suspension were removed daily and pulsed for 6 hours with [^3 H] thymidine. Means are shown. The SDs were never >20%.\nP3 was purified as described in the Experimental Details section. 5/2 cells (5,000/well) were incubated for 72 hours in HB101 medium and refed with the indicated amount of retinoid daily. DNA synthesis was measured by [^3 H]-thymidine uptake. P3 is bioactive down to a concentration of 10-^8 M (FIG. 8). […] This is due either to chemical instability or to a more rapid metabolic degradation of P3 by the cells.\nThe assay was done in 96-well microtiter plates in a final volume of 200 ul/well. The cells were cultured for 72 hours and cell growth determined by [^3 H] thymidine (0.8 μCi/well)labeling for the last 16 hours. Retinoids were added at the indicated concentrations at the initiation of culture and every 24 hours thereafter.\nThe human EBV-transformed B-cell line 5/2 was established from the peripheral blood of a healthy donor. The cell line was grown in RPMI 1640 supplemented with 8% fetal calf serum, L-glutamine (2 mM), and antibiotics. The cell line was tested regularly for mycoplasma infections and was consistently negative.\nThe assay system is a modification of the assay developed by Blazar et al. (12). […] Assays were done in 96 well microtiter plates in a final volume of 200 μl/well or in 25 cm^2 tissue culture flasks. The cells in the microtiter plates were cultured for 72 hours and cell growth was determined by labeling for the last 16 hours with 0.8 μCi/well of [^3 H]thymidine (sp. act. 6.7 Ci/mmol). Growth in the culture flasks was determined in three aliquots of 100 μl taken at 24 hours intervals and cultured in the presence of 0.8 μCi of [^3 H]thymidine for an additional 6 hour period. To determine the viable cell number, nine aliquots per time point were differentially counted in a Neubauer chamber in the presence of trypan blue.\n5/2 cells were grown in the absence of retinol in a medium containing the basic RPMI 1640 amino acid/salt mixture, insulin (5 μg/ml), transferrin (5 μg/ml), albumin (0.1%) and linoleic acid (10^-6 M) (ITLB). […] The dose-response curve shown in FIG. 26 indicates an effective concentration of 10^-7 M."}, "CD8+ T lymphocytes": {"tested_on": "CD8+ T lymphocytes", "experiment": "Proliferation of anti-CD3 plus IL-2 activated CD8+ T lymphocytes", "type": "cell-based, BALB/c mouse", "excerpt": "as §1, §2, §3"}, "[1]": {"conditions": "previous analyses with B lymphocytes (33)"}}, "data": [{"smiles": "CC(C=CC=C(C)C(O)CO)=CC=C1C(C)=CCCC1(C)C", "note": "(stereo not shown) [14HRR, 14-hydroxy-4,14-retro-retinol]", "values": [{"measurement": "potency relative to retinol in preventing necrotic cell death", "setting": "B lymphocytes; on a concentration basis, previous studies", "result": "20-40 times more potent"}, {"measurement": "concentration at which activity was demonstrated", "setting": "B lymphocytes; [1]", "result": 5, "unit": "µM"}, {"measurement": "difference in active concentration, 14HRR versus retinal", "setting": "B lymphocytes; [1]", "result": 40, "unit": "fold"}, {"measurement": "support of B cell growth/proliferation", "setting": "B lymphocytes; previous studies", "result": "capable of supporting the proliferation of B cells in the absence of an external supply of retinol"}, {"measurement": "response to activating signal", "setting": "CD4+ T lymphocytes", "result": "responded to the activating signal"}, {"measurement": "CD4+ cells among blast cells", "setting": "blast cells (thymocytes)", "result": "~70", "unit": "%"}, {"measurement": "CD8+ cells among blast cells", "setting": "blast cells (thymocytes)", "result": "~30", "unit": "%"}, {"measurement": "support of 5/2 cell growth", "setting": "5/2 cells; HB101 medium", "result": "active and capable of replacing retinol"}, {"measurement": "minimal effective concentration", "setting": "5/2 cells; Homo sapiens, 72 h, HB101 medium, refed daily, read-out: bioactive down to a concentration", "result": 0.01, "unit": "µM"}, {"measurement": "restoration of capacity to proliferate", "setting": "5/2 cells", "result": "restores the capacity to proliferate"}, {"measurement": "need to replenish cultures", "setting": "5/2 cells; chemical instability or more rapid metabolic degradation", "result": "cultures have to be replenished daily"}, {"measurement": "response to activating signal", "setting": "CD8+ T lymphocytes", "result": "responded to the activating signal"}]}, {"smiles": "CC1=C(/C=C/C(C)=C/C=C/C(C)=C/CO)C(C)(C)CCC1", "note": "[retinol, all-trans retinol]", "values": [{"measurement": "support of B cell growth/proliferation", "setting": "B lymphocytes; previous studies", "result": "necessary for the growth of B lymphocytes"}, {"measurement": "response to activating signal", "setting": "CD4+ T lymphocytes", "result": "responded to the activating signal"}, {"measurement": "CD4+ cells among blast cells", "setting": "blast cells (thymocytes)", "result": "~70", "unit": "%"}, {"measurement": "CD8+ cells among blast cells", "setting": "blast cells (thymocytes)", "result": "~30", "unit": "%"}, {"measurement": "support of 5/2 cell growth", "setting": "5/2 cells; HB101 medium", "result": "enable 5/2 cells to grow"}, {"measurement": "restoration of capacity to proliferate", "setting": "5/2 cells", "result": "restores the capacity to proliferate"}, {"measurement": "response to activating signal", "setting": "CD8+ T lymphocytes", "result": "responded to the activating signal"}]}]}
